Laboratory results published in patent US12673945B2, “3-((8-((1H-pyrazol-4-yl)amino)imidazo[1,2-a]pyridin-3-yl)ethinyl)-n-phenylbenzamide derivative, method for preparing same, and pharmaceutical composition containing same as active ingredient for prevention or treatment of cancer” (DAEGU-GYEONGBUK MEDICAL INNOVATION FOUNDATION, priority 2020, dated 2026).

Tests used:
Assay in all cases: scanMAX Kinase panel (DiscoverX)
Assay type in all cases: binding
[1] = target: T1, PFCDPK1(P. falciparum) (Plasmodium falciparum, UniProt P62344); conditions: read-out: % Cont @ 1 uM
T1 construct: purchased DiscoverX scanMAX Kinase panel
Procedure, shortened: (§1)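 The enzyme was exposed to 1 μM drug dissolved in DMSO; the value shown is % control, i.e. (test − positive control) divided by (negative control − positive control), multiplied by 100.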

[2] = target: T2, MINK (Homo sapiens, UniProt Q8N4C8); conditions: read-out: % Cont @ 1 uM
T2 construct: purchased DiscoverX scanMAX Kinase panel
T2 sequence (Q8N4C8 whole entry): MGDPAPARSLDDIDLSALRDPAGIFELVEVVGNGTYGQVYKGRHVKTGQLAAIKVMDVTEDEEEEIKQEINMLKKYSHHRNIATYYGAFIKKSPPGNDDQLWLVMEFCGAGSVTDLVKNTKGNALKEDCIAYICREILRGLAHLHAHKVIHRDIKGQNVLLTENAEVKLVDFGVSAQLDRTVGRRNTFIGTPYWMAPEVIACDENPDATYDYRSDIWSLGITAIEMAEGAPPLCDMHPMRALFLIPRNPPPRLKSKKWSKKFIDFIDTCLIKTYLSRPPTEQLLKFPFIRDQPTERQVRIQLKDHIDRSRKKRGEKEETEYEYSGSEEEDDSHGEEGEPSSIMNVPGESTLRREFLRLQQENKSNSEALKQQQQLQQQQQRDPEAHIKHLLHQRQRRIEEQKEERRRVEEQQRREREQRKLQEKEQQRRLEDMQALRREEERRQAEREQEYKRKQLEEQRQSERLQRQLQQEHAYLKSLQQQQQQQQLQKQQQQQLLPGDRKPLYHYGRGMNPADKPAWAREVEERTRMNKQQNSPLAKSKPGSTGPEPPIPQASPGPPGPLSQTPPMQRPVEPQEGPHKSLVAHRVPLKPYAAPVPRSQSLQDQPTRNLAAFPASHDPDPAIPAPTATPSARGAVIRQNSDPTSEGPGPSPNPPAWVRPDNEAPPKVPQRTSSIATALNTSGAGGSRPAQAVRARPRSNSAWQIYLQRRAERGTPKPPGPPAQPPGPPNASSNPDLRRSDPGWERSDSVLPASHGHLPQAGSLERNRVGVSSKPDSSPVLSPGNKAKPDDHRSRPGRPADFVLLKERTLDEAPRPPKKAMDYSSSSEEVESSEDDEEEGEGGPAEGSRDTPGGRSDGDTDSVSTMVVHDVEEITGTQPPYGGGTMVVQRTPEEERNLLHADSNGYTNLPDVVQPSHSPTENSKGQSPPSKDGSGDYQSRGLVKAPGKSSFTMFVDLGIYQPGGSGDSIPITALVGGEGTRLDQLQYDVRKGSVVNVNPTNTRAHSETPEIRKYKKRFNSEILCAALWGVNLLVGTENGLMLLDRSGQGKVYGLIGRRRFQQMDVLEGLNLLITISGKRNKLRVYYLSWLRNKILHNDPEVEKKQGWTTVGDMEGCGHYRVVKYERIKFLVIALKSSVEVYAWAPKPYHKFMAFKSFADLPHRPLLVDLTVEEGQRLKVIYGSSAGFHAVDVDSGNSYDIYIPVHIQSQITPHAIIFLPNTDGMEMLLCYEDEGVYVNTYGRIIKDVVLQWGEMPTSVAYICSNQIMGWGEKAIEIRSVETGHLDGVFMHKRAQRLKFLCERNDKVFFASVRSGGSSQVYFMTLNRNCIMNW
Procedure, shortened: as §1

[3] = target: T3, MST3 (Homo sapiens, UniProt Q9Y6E0)
T3 construct: purchased DiscoverX scanMAX Kinase panel
Procedure, shortened: as §1

[4] = target: T4, EGFR(L858R) (Homo sapiens, UniProt P00533, L858R)
T4 construct: purchased DiscoverX scanMAX Kinase panel
Procedure, shortened: as §1

[5] = target: T5, KIT(V559D, T670I) (Homo sapiens, UniProt P10721, T670I/V559D); conditions: read-out: % Cont @ 1 uM
T5 construct: purchased DiscoverX scanMAX Kinase panel
T5 sequence (P10721 26-976 V559D/T670I): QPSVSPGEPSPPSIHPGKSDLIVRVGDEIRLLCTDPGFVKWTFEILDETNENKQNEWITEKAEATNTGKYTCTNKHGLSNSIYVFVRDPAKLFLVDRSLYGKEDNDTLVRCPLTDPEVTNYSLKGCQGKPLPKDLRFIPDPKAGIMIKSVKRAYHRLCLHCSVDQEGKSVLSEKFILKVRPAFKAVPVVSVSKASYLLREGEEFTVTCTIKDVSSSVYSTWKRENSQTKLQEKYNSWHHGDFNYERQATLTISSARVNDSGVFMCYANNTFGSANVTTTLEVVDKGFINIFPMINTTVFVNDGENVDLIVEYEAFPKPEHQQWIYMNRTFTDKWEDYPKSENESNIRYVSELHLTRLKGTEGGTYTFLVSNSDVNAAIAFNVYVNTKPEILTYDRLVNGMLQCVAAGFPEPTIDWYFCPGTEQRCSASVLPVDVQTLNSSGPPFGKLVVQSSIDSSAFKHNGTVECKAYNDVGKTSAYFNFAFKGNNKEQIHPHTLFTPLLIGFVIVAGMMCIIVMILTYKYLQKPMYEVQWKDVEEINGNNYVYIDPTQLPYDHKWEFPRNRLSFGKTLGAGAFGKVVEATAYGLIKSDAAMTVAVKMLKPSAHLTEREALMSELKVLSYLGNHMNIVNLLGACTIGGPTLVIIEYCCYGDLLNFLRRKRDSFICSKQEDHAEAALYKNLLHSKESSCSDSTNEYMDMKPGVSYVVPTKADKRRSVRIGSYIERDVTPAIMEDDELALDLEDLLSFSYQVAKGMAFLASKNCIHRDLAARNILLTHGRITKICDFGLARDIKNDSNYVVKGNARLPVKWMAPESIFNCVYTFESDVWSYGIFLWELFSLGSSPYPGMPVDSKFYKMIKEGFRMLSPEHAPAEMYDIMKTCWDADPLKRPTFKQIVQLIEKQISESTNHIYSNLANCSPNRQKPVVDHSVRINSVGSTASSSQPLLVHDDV
Procedure, shortened: as §1

[6] = target: T6, EPHB1 (Homo sapiens, UniProt P54762); conditions: read-out: % Cont @ 1 uM
T6 construct: purchased DiscoverX scanMAX Kinase panel
Procedure, shortened: as §1

[7] = target: T7, YSK4 (Homo sapiens, UniProt Q56UN5); conditions: read-out: % Cont @ 1 uM
T7 construct: purchased DiscoverX scanMAX Kinase panel
Procedure, shortened: as §1

[8] = target: T8, MLK1 (Homo sapiens, UniProt P80192); conditions: read-out: % Cont @ 1 uM
T8 construct: purchased DiscoverX scanMAX Kinase panel
Procedure, shortened: as §1

[9] = target: T9, FLT3 (Homo sapiens, UniProt P36888); conditions: read-out: % Cont @ 1 uM
T9 construct: purchased DiscoverX scanMAX Kinase panel
Procedure, shortened: as §1

[10] = system: FLT3(ITD)
Procedure, shortened: as §1

[11] = target: T10, ZAK (Homo sapiens, UniProt Q9NYL2); conditions: read-out: % Cont @ 1 uM
T10 construct: purchased DiscoverX scanMAX Kinase panel
Procedure, shortened: as §1

[12] = target: T11, FLT3(D835H) (Homo sapiens, UniProt P36888, D835H); conditions: read-out: % Cont @ 1 uM
T11 construct: purchased DiscoverX scanMAX Kinase panel
Procedure, shortened: as §1

[13] = target: T12, ABL1(F317I)-nonphosphorylated (Homo sapiens, UniProt P00519, F317I); conditions: read-out: % Cont @ 1 uM
T12 construct: purchased DiscoverX
Procedure, shortened: as §1

[14] = target: T13, EGFR(L747-E749del, A750P) (Homo sapiens, UniProt P00533, A750P/DEL747-749)
T13 construct: purchased DiscoverX scanMAX Kinase panel
Procedure, shortened: as §1

[15] = target: T14, KIT(D816H) (Homo sapiens, UniProt P10721, D816H); conditions: read-out: % Cont @ 1 uM
T14 construct: purchased DiscoverX scanMAX Kinase panel
T14 sequence (P10721 26-976 D816H): as the sequence (P10721 26-976 V559D/T670I) above, with D534V, I645T, D791H counted along it
Procedure, shortened: as §1

[16] = target: T15, DDR1 (Homo sapiens, UniProt Q08345); conditions: read-out: % Cont @ 1 uM
T15 construct: purchased DiscoverX scanMAX Kinase panel
Procedure, shortened: as §1

[17] = target: T16, MKNK1 (Homo sapiens, UniProt Q9BUB5); conditions: read-out: % Cont @ 1 uM
T16 construct: purchased DiscoverX scanMAX Kinase panel
Procedure, shortened: as §1

[18] = target: T17, EPHA6 (Homo sapiens, UniProt Q9UF33); conditions: read-out: % Cont @ 1 uM
T17 construct: purchased DiscoverX scanMAX Kinase panel
Procedure, shortened: as §1

[19] = target: T18, KIT(L576P) (Homo sapiens, UniProt P10721, L576P); conditions: read-out: % Cont @ 1 uM
T18 construct: purchased DiscoverX scanMAX Kinase panel
T18 sequence (P10721 26-976 L576P): as the sequence (P10721 26-976 V559D/T670I) above, with D534V, L551P, I645T counted along it
Procedure, shortened: as §1

[20] = target: T19, BRAF(V600E) (Homo sapiens, UniProt P15056, V600E); conditions: read-out: % Cont @ 1 uM
T19 construct: purchased DiscoverX scanMAX Kinase panel
Procedure, shortened: as §1

[21] = target: T20, FES (Homo sapiens, UniProt P07332); conditions: read-out: % Cont @ 1 uM
T20 construct: purchased DiscoverX scanMAX Kinase panel
Procedure, shortened: as §1

[22] = target: T21, EPHA5 (Homo sapiens, UniProt P54756)
T21 construct: purchased DiscoverX scanMAX Kinase panel
T21 sequence (P54756 25-1037): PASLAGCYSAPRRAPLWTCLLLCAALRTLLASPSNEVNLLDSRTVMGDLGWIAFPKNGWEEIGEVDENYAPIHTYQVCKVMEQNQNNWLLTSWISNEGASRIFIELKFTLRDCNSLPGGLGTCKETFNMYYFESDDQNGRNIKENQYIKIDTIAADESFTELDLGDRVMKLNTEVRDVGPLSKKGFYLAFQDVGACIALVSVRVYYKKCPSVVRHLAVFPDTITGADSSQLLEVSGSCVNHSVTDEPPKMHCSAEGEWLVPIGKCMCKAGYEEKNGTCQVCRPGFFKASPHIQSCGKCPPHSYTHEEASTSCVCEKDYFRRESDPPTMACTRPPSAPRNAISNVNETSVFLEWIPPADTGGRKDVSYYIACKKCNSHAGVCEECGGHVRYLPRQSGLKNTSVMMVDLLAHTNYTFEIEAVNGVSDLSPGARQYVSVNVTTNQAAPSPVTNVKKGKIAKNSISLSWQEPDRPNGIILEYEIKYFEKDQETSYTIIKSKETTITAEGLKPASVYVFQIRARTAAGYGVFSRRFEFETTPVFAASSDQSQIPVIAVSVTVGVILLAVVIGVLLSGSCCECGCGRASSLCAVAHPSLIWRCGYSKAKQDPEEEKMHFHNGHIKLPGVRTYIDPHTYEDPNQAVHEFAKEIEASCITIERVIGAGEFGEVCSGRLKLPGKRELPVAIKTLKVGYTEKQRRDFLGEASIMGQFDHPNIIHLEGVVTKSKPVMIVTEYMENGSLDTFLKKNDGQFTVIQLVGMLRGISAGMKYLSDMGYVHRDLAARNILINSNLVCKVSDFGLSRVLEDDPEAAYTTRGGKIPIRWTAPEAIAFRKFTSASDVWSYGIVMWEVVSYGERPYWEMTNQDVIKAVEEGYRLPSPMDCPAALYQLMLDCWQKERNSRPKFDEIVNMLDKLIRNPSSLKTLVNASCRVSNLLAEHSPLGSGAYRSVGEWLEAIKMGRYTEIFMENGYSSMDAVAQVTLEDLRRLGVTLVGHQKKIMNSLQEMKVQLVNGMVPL
Procedure, shortened: as §1

[23] = target: T22, ABL1(Q252H)-nonphosphorylated (Homo sapiens, UniProt P00519, Q252H); conditions: read-out: % Cont @ 1 uM
T22 construct: purchased DiscoverX
Procedure, shortened: as §1

[24] = target: T23, EPHA4 (Homo sapiens, UniProt P54764); conditions: read-out: % Cont @ 1 uM
T23 construct: purchased DiscoverX scanMAX Kinase panel
T23 sequence (P54764 20-986): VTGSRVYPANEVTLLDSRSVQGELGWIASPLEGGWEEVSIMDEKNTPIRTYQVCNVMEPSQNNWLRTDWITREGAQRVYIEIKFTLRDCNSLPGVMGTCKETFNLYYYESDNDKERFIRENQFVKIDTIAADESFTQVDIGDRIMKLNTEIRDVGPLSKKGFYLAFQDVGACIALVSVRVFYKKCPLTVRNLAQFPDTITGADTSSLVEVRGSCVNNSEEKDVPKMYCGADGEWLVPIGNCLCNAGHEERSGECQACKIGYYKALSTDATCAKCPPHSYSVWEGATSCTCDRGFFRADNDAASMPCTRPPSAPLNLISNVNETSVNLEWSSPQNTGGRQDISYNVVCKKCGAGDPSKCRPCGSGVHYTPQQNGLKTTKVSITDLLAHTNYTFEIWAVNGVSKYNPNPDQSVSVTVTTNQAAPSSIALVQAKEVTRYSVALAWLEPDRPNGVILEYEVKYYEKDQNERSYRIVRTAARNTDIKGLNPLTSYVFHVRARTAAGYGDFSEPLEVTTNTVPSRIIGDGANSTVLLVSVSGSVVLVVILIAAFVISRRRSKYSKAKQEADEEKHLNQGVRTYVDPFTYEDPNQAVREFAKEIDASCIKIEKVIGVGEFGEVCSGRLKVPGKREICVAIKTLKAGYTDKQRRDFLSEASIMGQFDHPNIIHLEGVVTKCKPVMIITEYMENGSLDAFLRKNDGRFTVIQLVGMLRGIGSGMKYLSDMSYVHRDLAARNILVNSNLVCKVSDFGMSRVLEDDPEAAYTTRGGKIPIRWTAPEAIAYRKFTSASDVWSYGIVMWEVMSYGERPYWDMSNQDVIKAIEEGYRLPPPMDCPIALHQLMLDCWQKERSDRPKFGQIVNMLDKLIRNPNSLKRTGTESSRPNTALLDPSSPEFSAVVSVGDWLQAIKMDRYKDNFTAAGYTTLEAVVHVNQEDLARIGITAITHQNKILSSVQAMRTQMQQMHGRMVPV
Procedure, shortened: as §1

[25] = target: T24, PFTK1 (Homo sapiens, UniProt O94921)
T24 construct: purchased DiscoverX scanMAX Kinase panel
Procedure, shortened: as §1

[26] = target: T25, BMX (Homo sapiens, UniProt P51813); conditions: read-out: % Cont @ 1 uM
T25 construct: purchased DiscoverX scanMAX Kinase panel
Procedure, shortened: as §1

[27] = target: T26, LCK (Homo sapiens, UniProt P06239); conditions: read-out: % Cont @ 1 uM
T26 construct: purchased DiscoverX scanMAX Kinase panel
T26 sequence (P06239 whole entry): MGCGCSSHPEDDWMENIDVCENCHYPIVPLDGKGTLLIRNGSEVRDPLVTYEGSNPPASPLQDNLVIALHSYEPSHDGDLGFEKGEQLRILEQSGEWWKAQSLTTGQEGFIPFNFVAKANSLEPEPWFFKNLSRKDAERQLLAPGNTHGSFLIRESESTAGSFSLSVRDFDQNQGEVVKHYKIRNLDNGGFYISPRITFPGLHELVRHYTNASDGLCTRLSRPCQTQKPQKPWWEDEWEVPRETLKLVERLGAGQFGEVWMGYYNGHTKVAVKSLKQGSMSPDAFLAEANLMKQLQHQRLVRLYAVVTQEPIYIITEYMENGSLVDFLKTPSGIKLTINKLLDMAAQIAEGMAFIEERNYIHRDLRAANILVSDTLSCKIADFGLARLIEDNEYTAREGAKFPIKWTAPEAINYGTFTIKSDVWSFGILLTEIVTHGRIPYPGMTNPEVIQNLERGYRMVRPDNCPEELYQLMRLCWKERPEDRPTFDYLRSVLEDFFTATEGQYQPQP
Procedure, shortened: as §1

[28] = target: T27, STK36 (Homo sapiens, UniProt Q9NRP7); conditions: read-out: % Cont @ 1 uM
T27 construct: purchased DiscoverX scanMAX Kinase panel
Procedure, shortened: as §1

[29] = target: T28, MAP4K3 (Homo sapiens, UniProt Q8IVH8)
T28 construct: purchased DiscoverX scanMAX Kinase panel
Procedure, shortened: as §1

[30] = target: T29, EPHA3 (Homo sapiens, UniProt P29320); conditions: read-out: % Cont @ 1 uM
T29 construct: purchased DiscoverX scanMAX Kinase panel
Procedure, shortened: as §1

[31] = target: T30, EGFR(S752-I759del) (Homo sapiens, UniProt P00533, DEL752-759)
T30 construct: purchased DiscoverX scanMAX Kinase panel
Procedure, shortened: as §1

[32] = target: T31, TAOK3 (Homo sapiens, UniProt Q9H2K8); conditions: read-out: % Cont @ 1 uM
T31 construct: purchased DiscoverX scanMAX Kinase panel
Procedure, shortened: as §1

[33] = target: T32, LTK (Homo sapiens, UniProt P29376); conditions: read-out: % Cont @ 1 uM
T32 construct: purchased DiscoverX scanMAX Kinase panel
Procedure, shortened: as §1

[34] = target: T33, RET (Homo sapiens, UniProt P07949); conditions: read-out: % Cont @ 1 uM
T33 construct: purchased DiscoverX scanMAX Kinase panel
Procedure, shortened: as §1

[35] = target: T34, RIOK3 (Homo sapiens, UniProt O14730); conditions: read-out: % Cont @ 1 uM
T34 construct: purchased DiscoverX scanMAX Kinase panel
Procedure, shortened: as §1

[36] = target: T35, TAK1 (Homo sapiens, UniProt O43318); conditions: read-out: % Cont @ 1 uM
T35 construct: purchased DiscoverX scanMAX Kinase panel
Procedure, shortened: as §1

[37] = target: T36, YES (Homo sapiens, UniProt P07947); conditions: read-out: % Cont @ 1 uM
T36 construct: purchased DiscoverX scanMAX Kinase panel
Procedure, shortened: as §1

[38] = target: T37, RET(V804M) (Homo sapiens, UniProt P07949, V804M); conditions: read-out: % Cont @ 1 uM
T37 construct: purchased DiscoverX scanMAX Kinase panel
Procedure, shortened: as §1

Row | SMILES | remaining binding at 1 µM [1] | percent of control binding at 1 µM [2] | % Cont @ 1 uM [3] | % Cont @ 1 uM [4] | remaining binding at 1 µM [5] | remaining binding at 1 µM [6] | remaining binding at 1 µM [7] | percent of control binding at 1 µM [8] | remaining binding at 1 µM [9] | % Cont @ 1 uM [10] | remaining binding at 1 µM [11] | remaining binding at 1 µM [12] | remaining binding at 1 µM [13] | % Cont @ 1 uM [14] | percent of control binding at 1 µM [15] | remaining binding at 1 µM [16] | remaining binding at 1 µM [17] | remaining binding at 1 µM [18] | remaining binding at 1 µM [19] | remaining binding at 1 µM [20] | other results
1 | Cc1cn(-c2cc(NC(=O)c3cc(C#Cc4cnc5c(Nc6cnn(C)c6)cccn45)c(C)cc3F)cc(C(C)(C)C#N)c2)cn1 [Example 1, N-(3-(2-cyanopropane-2-yl)-5-(4-methyl-1H-imidazol-1-yl)phenyl)-2-fluoro-4-methyl-5-((8-((1-methyl-1H-pyrazol-4-yl)amino)imidazo[1,2-a]pyridin-3-yl)ethynyl)benzamide] | 12% | 2.4% | 20% | 5.5% | 1.2% | 17% | 0.3% | 18% | 2% | 1.1% | 1.5% | 0.45% | 50% | 11% | 12% | 0.15% | 23% | 16% | 1.4% | 15% | remaining binding at 1 µM [21]: 1.6%; % Cont @ 1 uM [22]: 8.9%; remaining binding at 1 µM [23]: 15%; remaining binding at 1 µM [24]: 26%; % Cont @ 1 uM [25]: 8.3%; remaining binding at 1 µM [26]: 6.7%; remaining binding at 1 µM [27]: 0.15%; remaining binding at 1 µM [28]: 20%; % Cont @ 1 uM [29]: 4%; remaining binding at 1 µM [30]: 4%; % Cont @ 1 uM [31]: 5.7%; remaining binding at 1 µM [32]: 1.6%; remaining binding at 1 µM [33]: 3.4%; remaining binding at 1 µM [34]: 0%; remaining binding at 1 µM [35]: 31%; remaining binding at 1 µM [36]: 4.3%; remaining binding at 1 µM [37]: 2.5%; remaining binding at 1 µM [38]: 0.35%
2 | Cc1cn(-c2cc(NC(=O)c3cc(C#Cc4cnc5c(Nc6cnn(C)c6)cccn45)c(C)cc3F)cc(C(F)(F)F)c2)cn1 [Example 4, 2-fluoro-4-methyl-N-(3-(4-methyl-1H-imidazol-1-yl)-5-(trifluoromethyl)phenyl)-5-((8-((1-methyl-1H-pyrazol-4-yl)amino)imidazo[1,2-a]pyridin-3-yl)ethynyl)benzamide] | 48% | 88% | 70% | 57% | 12% | 26% | 3% | 76% | 1.9% | 6.6% | 8.1% | 4.5% | 2.8% | 24% | 53% | 0% | 78% | 25% | 2.8% | 48% | remaining binding at 1 µM [21]: 55%; % Cont @ 1 uM [22]: 26%; remaining binding at 1 µM [23]: 4.1%; remaining binding at 1 µM [24]: 28%; % Cont @ 1 uM [25]: 94%; remaining binding at 1 µM [26]: 3.6%; remaining binding at 1 µM [27]: 0.4%; remaining binding at 1 µM [28]: 45%; % Cont @ 1 uM [29]: 70%; remaining binding at 1 µM [30]: 8.4%; % Cont @ 1 uM [31]: 30%; remaining binding at 1 µM [32]: 12%; remaining binding at 1 µM [33]: 8.7%; remaining binding at 1 µM [34]: 0.2%; remaining binding at 1 µM [35]: 40%; remaining binding at 1 µM [36]: 50%; remaining binding at 1 µM [37]: 10%; remaining binding at 1 µM [38]: 4.3%
